The values that follow come from patent US20070166547A1, “Use of a layer consisting of hydrophobic linear, or two-dimensional polycyclic aromatics as a barrier layer or an encapsulation and electric components constructed with a layer of this type and comprising organic polymers” (priority 2003, published 2007).

The nature of series [1]: Polarographic study of electrochemical reduction (electrochemical activity). Type of series: physicochemical. Particulars: for number of electrons participating in the reduction: calculated with the Geirovsky-Ilkovich equation; for i, mkA (polarographic wave current) / −E1/2, V (half-wave potential vs SCE): 37° C., forward trace, average for the group; for i, mkA (polarographic wave current): 9·10^−4 M; for half-wave potential more positive on reverse stroke than on forward stroke: reverse stroke vs forward stroke. As for the experimental part: The study was carried out on a general-purpose polarograph PU-1 with a two-coordinate recorder of the “LKD” type using a three-electrode thermostatically controlled polarographic cell and mercury dripping electrode (MDE) with forced separation of the drop and a dropping period of 0.5 second. A platinum wire was used as an auxiliary electrode and a saturated calomel electrode (SCE) was used as a control electrode.
2.0% solutions of sodium chloride having pH 7.0, 7.2, 7.4, 7.6 were used as a background; the pH values of the background solution were corrected by a solution of sodium hydroxide. The polarographic cell was filled with 5.0 ml of the background solution and for 5 minutes was purged with nitrogen for removing the dissolved oxygen. Then 0.5 ml of solution of the studied substance was added to the background solution, and the polarogram was recorded as a polarographic wave. The concentration of the compounds in the polarographic cell was 9·10^−4 M.
The pH was measured on the pH-meter with an accuracy of ±0.05 pH units. The polarographic measurements were carried out at a temperature of 37° C. The recording of polarograms of the investigated materials was effected under conditions of DC current at a scanning rate of the potential 10.0 mV/s with a active scanning stroke from a potential 0 to −0.5 V and sweep retrace from a −0.5 V to 0. The electric-current sensitivity was 5.0 mkA. The scale by the coordinate of the potentials was 50.0 mV/cm. The values of potentials of the half-wave E1/2 of the investigated materials are given with respect to the SCE potential.
The polarogram parameters such as a limiting current ilim and E1/2 were determined by the graphic method. The number of electrons participating in the reaction was calculated on the basis of the analysis of the polarographic wave using the Geirovsky-Ilkovich equation.

A short description of series [2]: Chronic toxicity, rectal suppositories: indexes of peripheral blood. Particulars: male rats; for Basophiles / Juveniles: 1 month/2 months (one value given).
Protocol: The experiments were conducted on inbred rats. The experimental animals were selected in groups by a method of random sampling taking into account the body mass as a determining index; 24 males or 24 females for one preparation from compounds 2, 15, 23, 34, 37 investigated in one dose.
Two doses of preparations used in the experiments: 50 mg/kg and 500 mg/kg. Before the administration, the suppositories were softened by heating in a glass water bath at a temperature of 38-39° C., the soft mass was collected in tuberculin syringe in a volume of 1 ml, a needle with oliva was attached to the syringe, and the preparatory mass was introduced into the rectum of the animal for a depth of 1.5-2.0 cm. The animals of the control group were administered with sterile medical liquid paraffin in a volume corresponding to the volume of the investigated suppository. A complete course of administration of drugs to the animals was two months. A complex of laboratory diagnostic investigations was carried out one month after the beginning of the administration of the preparation to the animal—in a middle of the course (8 animals), two months after ending the course (8 animals) and three months after ending the recovery period of one month (8 animals). The mass of the body of the rats in the first month of administration of the preparation was determined weekly, and then once in two weeks. On the basis of the dynamics of an index of the mass of the animal body, the volume of preparation being administered was corrected taking into account the test dose.
Where [3] appears, read: suppositories 50 mg/kg, 1 month.
The mark [4] stands for this setting: suppositories 50 mg/kg, 2 months.
[5] abbreviates: suppositories 500 mg/kg, 1 month.
Setting [6] is: suppositories 500 mg/kg, 2 months.

Turning to “disodium salt of 3-Kap ? OKC ? -7-(β-D-ribofuranosile)pyrido[2,3-d]-6H-pyridazine-5,8-dione [Compound 5]”, the “number of electrons participating in the reduction” value (shortened to “number … in the reduction”) in series [1] is recorded as 3.72. Besides, the “i, mkA (polarographic wave current)” value in series [1] (pH 7.0) was found to be 0.26 ± 0.04 mkA; in series [1] (pH 7.2), 0.31 ± 0.02 mkA; in series [1] (pH 7.4), 0.27 ± 0.03 mkA; in series [1] (pH 7.6) it was 0.30 ± 0.01 mkA. The “−E1/2, V (half-wave potential vs SCE)” value in series [1] (pH 7.0) was 0.11 ± 0.02 V; in series [1] (pH 7.2), 0.11 ± 0.03 V; in series [1] (pH 7.4) it was 0.105 ± 0.01 V; in series [1] (pH 7.6), 0.105 ± 0.02 V. For the same compound, the “half-wave potential more positive on reverse stroke than on forward stroke” value (“half-wave potential more positive” for short) in series [1] amounted to 25.0 mV.
With `O=C([O-])c1ncnc2c(=O)n([C@@H]3O[C@H](CO)[C@@H](O)[C@H]3O)[nH]c(=O)c12.[Na+]` [Compound 34, sodium salt of 4-carboxy-7-(β-D-ribofuranosile)pyrimido[4,5-D]-6H-pyridazine-5,8-dione], in series [2] (setting [3]), the “Average volume of erythrocytes” value came to 81.6 ± 1.9 Mkm^3; the “Coagulation, time” value was 148 ± 16 s; the Eosinophiles came out at 3.5 ± 1.0%; the Erythrocytes was 5.6 ± 0.1 mln/mm^3. Moreover, in series [2] (setting [3]), the Haematocrite turned out to be 46.9 ± 1.1%, the Hemoglobin came out at 10.6 ± 0.1 mmol/L, the Leukocyte worked out at 15.9 ± 1.3 thousand/mm^3 and the REE is 1.8 ± 0.5 mm/h. In series [2] (setting [3]), this compound returned a Reticulocytes of 2.7 ± 0.1%, a Stab neutrophil of 1.0 ± 0.4% and a Thrombocytes of 670 ± 23. Besides, in series [2] (suppositories 50 mg/kg), the Basophiles came to 0% and the Juveniles amounted to 0%. For the same compound, in series [2] (setting [4]), the “Average volume of erythrocytes” value amounted to 76.7 ± 1.9 Mkm^3; the “Coagulation, time” value came out at 321 ± 10 s; the Eosinophiles is given as 4.1 ± 0.4%; the Erythrocytes is 6.1 ± 0.2 mln/mm^3. In addition, in series [2] (setting [4]), the Haematocrite stood at 47.5 ± 1.2%, the Hemoglobin was determined as 11.1 ± 0.2 mmol/L, the Leukocyte stood at 17.8 ± 1.4 thousand/mm^3 and the REE is 1.7 ± 0.3 mm/h. In series [2] (setting [4]), this compound showed a Reticulocytes of 2.9 ± 0.2%, a Stab neutrophil of 1.8 ± 0.5% and a Thrombocytes of 610 ± 15. Also, in series [2] (setting [5]), the “Average volume of erythrocytes” value is on record as 84.1 ± 1.3 Mkm^3, the Eosinophiles is given as 3.0 ± 0.9%, the Erythrocytes was found to be 5.6 ± 0.2 mln/mm^3 and the Haematocrite is 48.1 ± 1.5%. In series [2] (setting [5]), the Hemoglobin was found to be 10.6 ± 0.3 mmol/L, the Leukocyte came to 16.9 ± 1.0 thousand/mm^3, the REE is on record as 2.0 ± 0.4 mm/h and the Reticulocytes turned out to be 3.2 ± 0.2%. In series [2] (setting [5]), the Stab neutrophil stood at 0.9 ± 0.2% and the Thrombocytes was 682 ± 24. Further, in series [2] (suppositories 500 mg/kg), the Basophiles is on record as 0% and the Juveniles was found to be 0%. Also, in series [2] (setting [6]), the “Average volume of erythrocytes” value is 83.8 ± 1.5 Mkm^3; the “Coagulation, time” value worked out at 312 ± 9 s; the Eosinophiles was determined as 3.9 ± 1.4%; the Erythrocytes is recorded as 6.6 ± 0.1 mln/mm^3. In series [2] (setting [6]), this compound gave a Haematocrite of 53.1 ± 1.6%, a Hemoglobin of 12.4 ± 0.4 mmol/L, a Leukocyte of 22.1 ± 1.1 thousand/mm^3 and an REE of 1.8 ± 0.2 mm/h. In series [2] (setting [6]), this compound came in with a Reticulocytes of 3.5 ± 0.3%, a Stab neutrophil of 1.4 ± 0.3% and a Thrombocytes of 631 ± 26.
For `O=c1[nH][nH]c(=O)c2nccnc12.[Na]` [Compound 26, sodium salt of pyrazine[2,3-d]-6H-pyridazine-5,8-dione], the “half-wave potential more positive” value in series [1] is 27.0 mV.
For the compound “potassium salt of 3-bromine-pyrazine[2,3-Cl]-6H-pyridazine-5,8-dione [Compound 27]”, the “number … in the reduction” value in series [1] is 3.72. Also, the “i, mkA (polarographic wave current)” value was 0.32 ± 0.03 mkA in series [1] (pH 7.0), 0.33 ± 0.04 mkA in series [1] (pH 7.2), 0.34 ± 0.03 mkA in series [1] (pH 7.4) and 0.34 ± 0.02 mkA in series [1] (pH 7.6). Further, the “−E1/2, V (half-wave potential vs SCE)” value is on record as 0.16 ± 0.02 V in series [1] (pH 7.0), 0.19 ± 0.02 V in series [1] (pH 7.2), 0.175 ± 0.01 V in series [1] (pH 7.4) and 0.16 ± 0.015 V in series [1] (pH 7.6). Moreover, the “half-wave potential more positive” value in series [1] worked out at 20.0 mV.
For “sodium salt of 7-(β-O-ribofuranosile)pyrido[2,3-1]-6H-pyridazine-5,8-dione sodium salt [Compound 1]”, in series [1], the “number … in the reduction” value is 3.72. In addition, the “i, mkA (polarographic wave current)” value turned out to be 0.26 ± 0.04 mkA in series [1] (pH 7.0), 0.31 ± 0.02 mkA in series [1] (pH 7.2), 0.27 ± 0.03 mkA in series [1] (pH 7.4) and 0.30 ± 0.01 mkA in series [1] (pH 7.6). Moreover, the “−E1/2, V (half-wave potential vs SCE)” value in series [1] (pH 7.0) came out at 0.11 ± 0.02 V; in series [1] (pH 7.2) it was 0.11 ± 0.03 V; in series [1] (pH 7.4) it was 0.105 ± 0.01 V; in series [1] (pH 7.6), 0.105 ± 0.02 V. Also, the “half-wave potential more positive” value in series [1] is 25.0 mV.
As to `COP(=O)(OC)C(C)(C)CC(C)=O` [dimephosphon, dimethyl ester of 1,1-dimethyl-3-oxybuthyl of phosphonic acid, reference compound], the “number … in the reduction” value in series [1] is listed as 1.6. Further, the “i, mkA (polarographic wave current)” value in series [1] (pH 7.0) worked out at 0.10 ± 0.03 mkA; in series [1] (pH 7.2), 0.12 ± 0.03 mkA; in series [1] (pH 7.4), 0.11 ± 0.02 mkA; in series [1] (pH 7.6), 0.11 ± 0.02 mkA. Besides, the “−E1/2, V (half-wave potential vs SCE)” value is 0.175 ± 0.01 V in series [1] (pH 7.0), 0.17 ± 0.02 V in series [1] (pH 7.2), 0.18 ± 0.01 V in series [1] (pH 7.4) and 0.18 ± 0.01 V in series [1] (pH 7.6). In series [1], the “half-wave potential more positive” value is on record as 50.0 mV.
In the case of `O=c1[nH]n([C@@H]2O[C@H](CO)[C@@H](O)[C@H]2O)c(=O)c2ncnc(O)c12.[Na]` [Compound 33, sodium salt of 4-hydroxy-7-(β-D-ribofuranosile)pyrimido[4,5-d]-6H-pyridazine-5,8-dione], in series [1], the “number … in the reduction” value is 3.5. The “i, mkA (polarographic wave current)” value in series [1] (pH 7.0) came out at 0.30 ± 0.05 mkA; in series [1] (pH 7.2), 0.26 ± 0.02 mkA; in series [1] (pH 7.4), 0.30 ± 0.03 mkA; in series [1] (pH 7.6), 0.30 ± 0.02 mkA. Also, the “−E1/2, V (half-wave potential vs SCE)” value in series [1] (pH 7.0) is recorded as 0.08 ± 0.02 V; in series [1] (pH 7.4), 0.085 ± 0.02 V; in series [1] (pH 7.6), 0.09 ± 0.02 V. Moreover, in series [1], the “half-wave potential more positive” value is 27.0 mV.
